In the assay the test system is leukemia L-1210. Nature of the assay: Antitumour activity in mice inoculated intraperitoneally with leukemia L-1210 (survival, T/C). Particulars: for response vs control in vivo at 100 mg/kg / response vs control in vivo at 200 mg/kg / response vs control in vivo at 400 mg/kg: Mus musculus, L1210, ip, directly after injection of L-1210, after 2 days and after 6 days; for response vs control in vivo at 100 mg/kg: 100 mg/kg i.p.; for response vs control in vivo at 200 mg/kg: 200 mg/kg i.p.; for response vs control in vivo at 400 mg/kg: 400 mg/kg i.p.; for Antileukemial effect on mice (in words): L-1210 in mice, conclusions in words. The assay is classed as in vivo, CDF-1 male mice. The method, then:
The antitumour activity for mice of the test material was evaluated by means of survival rate comparison, T/C (%), that is, 100 times the mean survival period of the groups injected with the test material divided by the mean survival period of the comparison groups which were not injected with the test material.
Further, for comparison, the following materials were also subjected to the same biological test: […]

SMILES strings stand for the structures. Where a name gives a salt, the structure may show the parent alone.

`CCCCCCCCCCCCCC(=O)Nc1ccn([C@@H]2O[C@H](COP(=O)(O)O)[C@@H](O)[C@@H]2O)c(=O)n1` [N^4 -Myristoyl-5'-PNa, N^4 -Myristoyl-1-β-D-arabinofuranosylcytosine-5'-phosphate monosodium]: the response vs control in vivo at 100 mg/kg was > 219%, the response vs control in vivo at 200 mg/kg was > 261% and the response vs control in vivo at 400 mg/kg amounted to 93%.
`CCCCC/C=C\C/C=C\C/C=C\C/C=C\CCCC(=O)Nc1ccn([C@@H]2O[C@H](CO)[C@@H](O)[C@@H]2O)c(=O)n1` [N^4 -Arachidonoyl-Ara-C] displayed a response vs control in vivo at 100 mg/kg of 269%, a response vs control in vivo at 200 mg/kg of 137% and a response vs control in vivo at 400 mg/kg of 114%.
For the compound `CCCCCCCCCCCCCCCCCC(=O)Nc1ccn([C@@H]2O[C@H](COP(=O)(O)O)[C@@H](OP(=O)(O)O)[C@@H]2O)c(=O)n1` [N^4-stearoyl-Ara-C-3',5'-(PNa)2], the response vs control in vivo at 100 mg/kg was 215%, the response vs control in vivo at 200 mg/kg was found to be 138% and the response vs control in vivo at 400 mg/kg is 107%.
Take `CCCCCCCC(=O)Nc1ccn([C@@H]2O[C@H](CO)[C@@H](O)[C@@H]2O)c(=O)n1` [N^4 -Caprylyl-Ara-C]: the response vs control in vivo at 100 mg/kg was 123%, the response vs control in vivo at 200 mg/kg stood at 127% and the response vs control in vivo at 400 mg/kg came to 163%.
Compound `CCCCCCCCCCCCCCCCCCC(=O)Nc1ccn([C@@H]2O[C@H](CO)[C@@H](O)[C@@H]2O)c(=O)n1` [N^4 -Nonadecanoyl-Ara-C] showed a response vs control in vivo at 100 mg/kg of 382%, a response vs control in vivo at 200 mg/kg of 216% and a response vs control in vivo at 400 mg/kg of 134%.
On to `CCCCCCCCCC(=O)Nc1ccn([C@@H]2O[C@H](CO)[C@@H](O)[C@@H]2O)c(=O)n1` [N^4 -Capryl-Ara-C], for which the response vs control in vivo at 100 mg/kg came out at 159%, the response vs control in vivo at 200 mg/kg was found to be 188% and the response vs control in vivo at 400 mg/kg was > 284%.
In turn, `CCCCCCCCCCCCCCCCCCC(=O)Nc1ccn([C@@H]2O[C@H](COP(=O)(O)O)[C@@H](O)[C@@H]2O)c(=O)n1` [N^4 -Nonadecanoyl-5'-PNa, N^4-nonadecanoyl-1-β-D-arabinofuranosylcytosine-5'-phosphate monosodium] showed a response vs control in vivo at 100 mg/kg of 385%, a response vs control in vivo at 200 mg/kg of 232% and a response vs control in vivo at 400 mg/kg of 102%.
`CC(=O)Nc1ccn([C@@H]2O[C@H](CO)[C@@H](O)[C@@H]2O)c(=O)n1` [N^4 -Acetyl-Ara-C]: the response vs control in vivo at 100 mg/kg is 125%, the response vs control in vivo at 200 mg/kg was 125% and the response vs control in vivo at 400 mg/kg is 125%.
`CCC(=O)Nc1ccn([C@@H]2O[C@H](CO)[C@@H](O)[C@@H]2O)c(=O)n1` [N^4 -Propionyl-Ara-C]: the response vs control in vivo at 100 mg/kg was determined as 131%, the response vs control in vivo at 200 mg/kg is 131% and the response vs control in vivo at 400 mg/kg came out at 135%.
As to `CCCCCCCCCCCCCCC(=O)Nc1ccn([C@@H]2O[C@H](CO)[C@@H](O)[C@@H]2O)c(=O)n1` [N^4 -Pentadecanoyl-Ara-C], the response vs control in vivo at 100 mg/kg stood at 302%, the response vs control in vivo at 200 mg/kg came to 287% and the response vs control in vivo at 400 mg/kg came to 91%.
`CCCCCCCC(=O)Nc1ccn([C@@H]2O[C@H](COP(=O)(O)O)[C@@H](O)[C@@H]2O)c(=O)n1` [N^4 -Caprylyl-5'-PNa] displayed a response vs control in vivo at 100 mg/kg of 103%, a response vs control in vivo at 200 mg/kg of 101% and a response vs control in vivo at 400 mg/kg of 99%.
Consider `CCCCCCCCCCCC(=O)Nc1ccn([C@@H]2O[C@H](COP(=O)(O)O)[C@@H](O)[C@@H]2O)c(=O)n1` [N^4 -Lauroyl-5'-PNa], for which the response vs control in vivo at 100 mg/kg worked out at 110%, the response vs control in vivo at 200 mg/kg was 115% and the response vs control in vivo at 400 mg/kg came to 115%.
On to `CCC(=O)Nc1ccn([C@@H]2O[C@H](COP(=O)(O)O)[C@@H](O)[C@@H]2O)c(=O)n1` [N^4 -Propionyl-5'-PNa], for which the response vs control in vivo at 100 mg/kg came to 99%, the response vs control in vivo at 200 mg/kg was 100% and the response vs control in vivo at 400 mg/kg stood at 101%.
Regarding `CCCCCCCCCCCCCC(=O)Nc1ccn([C@@H]2O[C@H](CO)[C@@H](O)[C@@H]2O)c(=O)n1` [N^4 -Myristoyl-Ara-C, N^4-myristoyl-1-β-D-arabinofuranosylcytosine], the response vs control in vivo at 100 mg/kg worked out at 206%, the response vs control in vivo at 200 mg/kg was found to be 127% and the response vs control in vivo at 400 mg/kg worked out at 90%.
`CCCCCCCCCCCCCCCCCCCCCC(=O)Nc1ccn([C@@H]2O[C@H](CO)[C@@H](O)[C@@H]2O)c(=O)n1` [N^4 -Behenoyl-Ara-C] yielded a response vs control in vivo at 100 mg/kg of 313%, a response vs control in vivo at 200 mg/kg of 260% and a response vs control in vivo at 400 mg/kg of 256%.
For `Nc1ccn([C@@H]2O[C@H](COP(=O)(O)O)[C@@H](O)[C@@H]2O)c(=O)n1` [Ara-C-5'-p.circle., 1-β-D-arabinofuranosylcytosine-5'-phosphate], the “Antileukemial effect on mice (in words)” value was “inferior to 1-β-D-arabinofuranosylcytosine in antileukemical effect on mice”, the response vs control in vivo at 100 mg/kg was 119%, the response vs control in vivo at 200 mg/kg was found to be 131% and the response vs control in vivo at 400 mg/kg amounted to 143%.
For `CCCCCCCCCCCCCCCCCC(=O)Nc1ccn([C@@H]2O[C@H](COP(=O)(O)O)[C@@H](O)[C@@H]2O)c(=O)n1` [N^4-stearoyl-1-β-D-arabinofuranosylcytosine-5'-phosphate], the “Antileukemial effect on mice (in words)” value is recorded as “had the highest antileukemial effect on mice”.
The compound `CCCCCCCCCCCCCCCCCC(=O)Nc1ccn([C@@H]2O[C@H](CO)[C@@H](O)[C@@H]2OP(=O)(O)O)c(=O)n1` [N^4-stearoyl-Ara-C-2'-PNa, N^4-stearoyl-1-β-D-arabinofuranosylcytosine-2'-phosphate monosodium salt] yielded a response vs control in vivo at 100 mg/kg of 228%, a response vs control in vivo at 200 mg/kg of 146% and a response vs control in vivo at 400 mg/kg of 121%.
Regarding `CCCCC(=O)Nc1ccn([C@@H]2O[C@H](COP(=O)(O)O)[C@@H](O)[C@@H]2O)c(=O)n1` [N^4 -Valeryl-5'-PNa], the response vs control in vivo at 100 mg/kg turned out to be 101%, the response vs control in vivo at 200 mg/kg came out at 99% and the response vs control in vivo at 400 mg/kg worked out at 101%.
On to `CCCCCCCCCCCCCCCCCCCC(=O)Nc1ccn([C@@H]2O[C@H](CO)[C@@H](O)[C@@H]2O)c(=O)n1` [N^4 -Arachidoyl-Ara-C], for which the response vs control in vivo at 100 mg/kg stood at 313%, the response vs control in vivo at 200 mg/kg was 128% and the response vs control in vivo at 400 mg/kg worked out at 105%.
In turn, `CCCCCCCCCCCCCCCCCCCCCC(=O)Nc1ccn([C@@H]2O[C@H](COP(=O)(O)O)[C@@H](O)[C@@H]2O)c(=O)n1` [N^4 -Behenoyl-5'-PNa] displayed a response vs control in vivo at 100 mg/kg of 316%, a response vs control in vivo at 200 mg/kg of 280% and a response vs control in vivo at 400 mg/kg of 270%.
`CCCCCC(=O)Nc1ccn([C@@H]2O[C@H](CO)[C@@H](O)[C@@H]2O)c(=O)n1` [N^4 -Caproyl-Ara-C]: the response vs control in vivo at 100 mg/kg amounted to 125%, the response vs control in vivo at 200 mg/kg came to 133% and the response vs control in vivo at 400 mg/kg stood at 150%.

(Values after US4086417A, “Cytidine nucleotide derivatives” (Asahi Kasei Kogyo Kabushiki Kaisha, priority 1974, dated 1978).)
